# Data reported in the CheMixHub viscosity set.
# “And” between values parts separate entries of the source, which are not always exact repeats. Equal values may be shown once. ± gives the uncertainty stated by the source.
# Assay: xn = mol fraction of the nth substance listed
smiles,measurement,setting,value
CN(C)C=O + O,viscosity,"303.15 K, 101 kPa, x2 = 0.9",1.519 ± 0.01 mPa·s and 1.516 ± 0.02 mPa·s
same,viscosity,"303.15 K, 101 kPa, x2 = 0.94",1.24 ± 0.0083 mPa·s and 1.24 ± 0.017 mPa·s
same,viscosity,"303.15 K, 101 kPa, x2 = 0.96",1.093 ± 0.0074 mPa·s and 1.091 ± 0.015 mPa·s
same,viscosity,"303.15 K, 101 kPa, x2 = 0.98",0.9451 ± 0.0065 mPa·s and 0.9453 ± 0.013 mPa·s
same,viscosity,"305.15 K, 101 kPa, x1 = 0.0254",1.107 ± 0.22 mPa·s
same,viscosity,"305.15 K, 101 kPa, x1 = 0.0555",1.335 ± 0.24 mPa·s
same,viscosity,"305.15 K, 101 kPa, x1 = 0.0915",1.61 ± 0.27 mPa·s
same,viscosity,"305.15 K, 101 kPa, x1 = 0.1355",1.795 ± 0.29 mPa·s
same,viscosity,"305.15 K, 101 kPa, x1 = 0.1904",2.021 ± 0.32 mPa·s
same,viscosity,"305.15 K, 101 kPa, x1 = 0.2608",2.238 ± 0.34 mPa·s
same,viscosity,"305.15 K, 101 kPa, x1 = 0.2921",2.27 ± 0.35 mPa·s
same,viscosity,"305.15 K, 101 kPa, x1 = 0.304",2.308 ± 0.35 mPa·s
same,viscosity,"305.15 K, 101 kPa, x1 = 0.3199",2.282 ± 0.35 mPa·s
same,viscosity,"305.15 K, 101 kPa, x1 = 0.3544",2.262 ± 0.35 mPa·s
same,viscosity,"305.15 K, 101 kPa, x1 = 0.4137",2.102 ± 0.33 mPa·s
same,viscosity,"305.15 K, 101 kPa, x1 = 0.4848",1.934 ± 0.31 mPa·s
same,viscosity,"305.15 K, 101 kPa, x1 = 0.5714",1.619 ± 0.27 mPa·s
same,viscosity,"305.15 K, 101 kPa, x1 = 0.6792",1.393 ± 0.25 mPa·s
same,viscosity,"305.15 K, 101 kPa, x1 = 0.8171",1.106 ± 0.22 mPa·s
same,viscosity,"308.15 K, 101 kPa, x1 = 0.0254",0.985 ± 0.2 mPa·s
same,viscosity,"308.15 K, 101 kPa, x1 = 0.027",0.9526 ± 0.0084 mPa·s
same,viscosity,"308.15 K, 101 kPa, x1 = 0.0555",1.164 ± 0.22 mPa·s
same,viscosity,"308.15 K, 101 kPa, x1 = 0.058",1.163 ± 0.0099 mPa·s
same,viscosity,"308.15 K, 101 kPa, x1 = 0.0915",1.428 ± 0.25 mPa·s
same,viscosity,"308.15 K, 101 kPa, x1 = 0.1355",1.583 ± 0.27 mPa·s
same,viscosity,"308.15 K, 101 kPa, x1 = 0.14",1.539 ± 0.014 mPa·s
same,viscosity,"308.15 K, 101 kPa, x1 = 0.1904",1.823 ± 0.3 mPa·s
same,viscosity,"308.15 K, 101 kPa, x1 = 0.2608",1.989 ± 0.32 mPa·s
same,viscosity,"308.15 K, 101 kPa, x1 = 0.2921",1.999 ± 0.32 mPa·s
same,viscosity,"308.15 K, 101 kPa, x1 = 0.304",2.044 ± 0.32 mPa·s
same,viscosity,"308.15 K, 101 kPa, x1 = 0.3199",1.976 ± 0.31 mPa·s
same,viscosity,"308.15 K, 101 kPa, x1 = 0.3544",1.985 ± 0.31 mPa·s
same,viscosity,"308.15 K, 101 kPa, x1 = 0.4137",1.872 ± 0.3 mPa·s
same,viscosity,"308.15 K, 101 kPa, x1 = 0.4848",1.685 ± 0.28 mPa·s
same,viscosity,"308.15 K, 101 kPa, x1 = 0.5714",1.424 ± 0.25 mPa·s
same,viscosity,"308.15 K, 101 kPa, x1 = 0.6792",1.245 ± 0.23 mPa·s
same,viscosity,"308.15 K, 101 kPa, x1 = 0.8171",1.029 ± 0.21 mPa·s
same,viscosity,"308.15 K, 101 kPa, x2 = 0.1",0.7874 ± 0.0054 mPa·s and 0.7848 ± 0.011 mPa·s
same,viscosity,"308.15 K, 101 kPa, x2 = 0.2",0.8915 ± 0.0061 mPa·s and 0.8893 ± 0.012 mPa·s
same,viscosity,"308.15 K, 101 kPa, x2 = 0.3",1.036 ± 0.007 mPa·s and 1.033 ± 0.014 mPa·s
same,viscosity,"308.15 K, 101 kPa, x2 = 0.4",1.226 ± 0.0082 mPa·s and 1.224 ± 0.016 mPa·s
same,viscosity,"308.15 K, 101 kPa, x2 = 0.5",1.468 ± 0.0098 mPa·s and 1.467 ± 0.019 mPa·s
same,viscosity,"308.15 K, 101 kPa, x2 = 0.6",1.707 ± 0.011 mPa·s and 1.702 ± 0.023 mPa·s
same,viscosity,"308.15 K, 101 kPa, x2 = 0.7",1.856 ± 0.012 mPa·s and 1.856 ± 0.025 mPa·s
same,viscosity,"308.15 K, 101 kPa, x2 = 0.8",1.759 ± 0.012 mPa·s and 1.757 ± 0.023 mPa·s
same,viscosity,"308.15 K, 101 kPa, x2 = 0.9",1.335 ± 0.0089 mPa·s and 1.335 ± 0.018 mPa·s
same,viscosity,"308.15 K, 101 kPa, x2 = 0.92",1.221 ± 0.0082 mPa·s and 1.22 ± 0.016 mPa·s
same,viscosity,"308.15 K, 101 kPa, x2 = 0.94",1.1 ± 0.0075 mPa·s and 1.1 ± 0.015 mPa·s
same,viscosity,"308.15 K, 101 kPa, x2 = 0.96",0.9743 ± 0.0067 mPa·s and 0.9712 ± 0.013 mPa·s
same,viscosity,"308.15 K, 101 kPa, x2 = 0.98",0.8498 ± 0.0059 mPa·s and 0.8476 ± 0.011 mPa·s
same,viscosity,"313.15 K, 101 kPa, x1 = 0.0254",0.856 ± 0.19 mPa·s
same,viscosity,"313.15 K, 101 kPa, x1 = 0.027",0.8698 ± 0.0078 mPa·s
same,viscosity,"313.15 K, 101 kPa, x1 = 0.0555",1.011 ± 0.21 mPa·s
same,viscosity,"313.15 K, 101 kPa, x1 = 0.058",1.067 ± 0.0094 mPa·s
same,viscosity,"313.15 K, 101 kPa, x1 = 0.0915",1.284 ± 0.24 mPa·s
same,viscosity,"313.15 K, 101 kPa, x1 = 0.1355",1.433 ± 0.25 mPa·s
same,viscosity,"313.15 K, 101 kPa, x1 = 0.14",1.392 ± 0.013 mPa·s
same,viscosity,"313.15 K, 101.33 kPa, x1 = 0.0217",0.7737 ± 0.026 mPa·s
same,viscosity,"313.15 K, 101.33 kPa, x1 = 0.0466",0.9108 ± 0.03 mPa·s
same,viscosity,"313.15 K, 101.33 kPa, x1 = 0.0989",1.188 ± 0.038 mPa·s
same,viscosity,"313.15 K, 101.33 kPa, x1 = 0.1478",1.404 ± 0.044 mPa·s
same,viscosity,"313.15 K, 101.33 kPa, x1 = 0.2481",1.713 ± 0.053 mPa·s
same,viscosity,"313.15 K, 101.33 kPa, x1 = 0.2859",1.729 ± 0.053 mPa·s
same,viscosity,"313.15 K, 101.33 kPa, x1 = 0.3728",1.586 ± 0.049 mPa·s
same,viscosity,"313.15 K, 101.33 kPa, x1 = 0.4919",1.351 ± 0.043 mPa·s
same,viscosity,"313.15 K, 101.33 kPa, x1 = 0.5936",1.177 ± 0.037 mPa·s
same,viscosity,"313.15 K, 101.33 kPa, x1 = 0.6889",1.005 ± 0.032 mPa·s
same,viscosity,"313.15 K, 101.33 kPa, x1 = 0.7991",0.8768 ± 0.029 mPa·s
same,viscosity,"313.15 K, 101.33 kPa, x1 = 0.8795",0.8096 ± 0.027 mPa·s
same,viscosity,"318.15 K, 101 kPa, x1 = 0.027",0.796 ± 0.0072 mPa·s
same,viscosity,"318.15 K, 101 kPa, x1 = 0.058",0.9746 ± 0.0086 mPa·s
same,viscosity,"318.15 K, 101 kPa, x1 = 0.14",1.24 ± 0.012 mPa·s
same,viscosity,"323.15 K, 101 kPa, x1 = 0.027",0.7318 ± 0.0067 mPa·s
same,viscosity,"323.15 K, 101 kPa, x1 = 0.058",0.8939 ± 0.0085 mPa·s
same,viscosity,"323.15 K, 101 kPa, x1 = 0.14",1.096 ± 0.015 mPa·s
